Tests used:
Experiment in all cases: microbe, parasite or virus in culture
Assay type in all cases: cell-based
Settings in all cases: hACE2-HEK293T cells
[1] = system: SARS-CoV-2-S pseudovirus Gamma variant
[2] = system: SARS-CoV-2-S pseudovirus Delta variant
[3] = system: SARS-CoV-2-S pseudovirus Omicron variant

C[C@@H]1O[C@@H](O[C@H]2[C@H](OC(=O)[C@]34CCC(C)(C)C[C@H]3C3=CC[C@@H]5[C@@]6(C)C[C@H](O)[C@H](O[C@@H]7O[C@H](CO)[C@@H](O)[C@H](O)[C@H]7O)C(CO)(CO)[C@@H]6CC[C@@]5(C)[C@]3(C)C[C@H]4O)OC[C@H](O)[C@@H]2O)[C@H](O)[C@H](O)[C@H]1O[C@@H]1OC[C@@H](O)[C@H](O)[C@H]1O [DPD, Deapio platycodin D]
IC50 [1]: 1000 ± 40 nM | IC50 [2]: 830 ± 70 nM | IC50 [3]: 1.03 ± 0.02 µM

Oc1cc(O)c2cc(O)c(-c3cc(O)c(O)c(O)c3)[o+]c2c1 [Delphinidin]
IC50 [1]: > 200000 nM | IC50 [2]: > 200000 nM | IC50 [3]: 10.8 ± 0.68 µM
